# According to article PMC7355684 (Pharmaceutics, 2020):
# “Also recorded” adds a separate entry of the source. Where two headings read alike, the source gives them in different places. Where a SMILES comes first, the peptide text is derived from it. Side-chain parts run from the residue outwards. The star is where a group is joined. Daunorubicin(13-NOCH2CO) = COc1cccc2c1C(=O)c1c(O)c3c(c(O)c1C2=O)C[C@@](O)(C(C)=NOCC(=O)*)C[C@@H]3O[C@H]1C[C@H](N)[C@H](O)[C@H](C)O1
# Key:
# Colo-205 cells = type: cell-based, human
# Experimental: (§1) EBC-1 and Colo-205 model cells have weak/negligible adherent properties, and A2058 cells could not produce constant cell index values. Therefore, a colorimetric assay (alamarBlue-assay) was chosen instead of the xCELLigence system to investigate the viability of these model cells treated with the conjugates. Due to the growth characteristics of NHDF cells, alamarBlue-assay was performed also on this cell line.
# (§2) The protocol for the alamarBlue-assay was similar to the method which was published earlier, with some minor modifications. Briefly, the cell seeding occurred on 96-well cell culture plates (Sarstedt AG, Nümbrecht, Germany) at 10^4 cells/well concentration. After a 24 h long culturing period, the treatment was carried out with the conjugates at 10^−4, 10^−5 and 10^−6 M final concentrations for 24, 48 and 72 h. In the next steps, the alamarBlue reagent (0.15 mg/mL, Sigma-Aldrich) dissolved in phosphate-buffered saline (PBS; pH = 7.2), was added to the wells. After 6 h incubation with the reagent, the fluorescence intensity of the samples was obtained by an LS-50B Luminescence Spectrometer (Perkin Elmer Ltd., Buckinghamshire, UK) or a Fluoroskan^TM FL Microplate Fluorometer and Luminometer (Thermo Scientific, Waltham, MA, USA) by using the following settings: λex = 560 nm and λem = 590 nm.
# (§3) Three parallels were performed per treatment group. In the case of controls, an equivalent volume of cell culture media was added to the cell. Fluorescence intensities of the samples treated with various concentrations of conjugates were expressed as a percentage of the fluorescence of control.
# A2058 cells = type: cell-based, human
# Experimental: as §1, §2, §3
# EBC-1 cells = type: cell-based, human
# Experimental: as §1, §2, §3
# PANC-1 cells = experiment: cells; type: cell-based, human
# Experimental: This measurement is based on the registration of electrical resistance (impedance, Z) in alternating current (AC) field. The living cells transplanted to the gold measuring electrodes are physically insulated by phospholipid bilayer that covers them. This instrumentally measurable property changes (decreases) in response to cellular cytotoxic agents. Our measurements were performed on xCELLigence single plate (ACEA Biosciences, San Diego, CA, USA) dedicated for impedimetric analysis of cellular samples at 37 °C and 5% CO2.
# During the initial phase of the experiments—the baseline recording—a special 96-well cell culture plate, E-plate (ACEA Biosciences), equipped with measuring electrodes, was pretreated with freshly prepared cell culture medium (for 60 min; sampling frequency: 1 min). Subsequently, PANC-1 cells were plated at a cell density of 10^4 cells/well. During the 24 h incubation, the cells evenly covered the electrodes at the bottom of the wells of the E-plate. The resulting confluent cell cultures were then treated with the test substances at the following final concentrations: 10^−6, 10^−5, 10^−4 M. Total treatment duration was 72 h and the sampling rate was 1 min (0–24 h); and then 15 min (48–72 h). In our measurements, three replicates were used, the control was the drug-free medium. […] The CI results were analyzed with xCELLigence RTCA 2.0 software and Origin Pro 8.0 software.
# [1] = Lysosomal degradation of conjugates by LC-MS; type: in vitro ADME; conditions: rat liver lysosome homogenate, 0.2 M NaOAc pH 5.03, 0.025 μg/μL conjugate, 37 °C; for Time to complete lysosomal degradation: sampling up to 72 h
# Experimental: For the stability and metabolism studies of the conjugates, liquid chromatography–mass spectrometry (LC-MS) analyses were performed on a Q ExactiveTM Focus, high resolution and high mass accuracy, hybrid quadrupole-orbitrap mass spectrometer (Thermo Fisher Scientific, Bremen, Germany) using on-line UHPLC coupling. UHPLC separation was performed on a Dionex 3000 UHPLC system using a Supelco Ascentis C18 column (2.1 × 150 mm, 3 µm). Linear gradient elution (0 min 2% B, 1 min 2% B, 17 min 90% B) with eluent A (0.1% HCOOH in water, v/v) and eluent B (0.1% HCOOH in acetonitrile/water, 80:20, v/v) was used at a flow rate of 0.2 mL/min at 40 °C. High-resolution mass spectra were acquired in the 200–1600 m/z range. LC-MS data were analyzed by XcaliburTM software (Thermo Fisher Scientific) and with Origin Pro 8 (OriginLab Corp., Northampton, MA, USA).
# Conjugates were dissolved in distilled water in 2.5 μg/μL concentration followed by dilution with 0.2 M NaOAc solution (pH = 5.03) to 0.025 μg/μL. The lysosome-homogenate was prepared from rat liver and contained proteins in 16.6 μg/μL concentration. An aliquot (20 μL) of this stock solution was further diluted with […] 0.2 M NaOAc solution, therefore the final protein concentration was 0.83 μg/μL. To prepare the reaction mixture, 15 μL (0.83 μg/μL) lysosome homogenate was added to 500 μL (0.025 μg/μL) conjugate solution. Furthermore, a control reaction mixture was always prepared which contained 500 μL conjugate solution and 15 μL NaOAc solution only. The solutions were stirred on 600 rpm at 37 °C and samples (50 μL) were taken out at 0 min, 5 min, 15 min, 30 min, 1 h, 2 h, 6 h, 24 h, and 72 h. The enzymatic activity was quenched by adding 5 μL formic acid to the samples. After this procedure, samples were frozen immediately at −25 °C. Control samples were taken at 0 min, 15 min, 1 h, 6 h, 24 h and 72 h. Composition of the samples was determined by HPLC-MS as described above.
# [2] = lysosome-homogenate prepared from rat liver, in 0.2 M NaOAc solution (pH = 5.03); conditions: 37 °C, up to 72 h
# [3] = alamarBlue fluorescence normalized to control wells, 10^-5 M, mean ± SD, n=3
# [4] = PANC-1, impedimetry, cell index normalized to control wells, 10^−5 M, mean ± SD, n = 3
molecule,measurement,setting,value
"COc1cccc2c1C(=O)c1c(O)c3c(c(O)c1C2=O)C[C@@](O)(C(C)=NOCC(=O)N[C@@H](CO)C(=O)N[C@@H](CCCCN)C(=O)N[C@@H](C)C(=O)N[C@@H](C)C(=O)N[C@@H](CCCCN)C(=O)N[C@@H](CC(N)=O)C(=O)O)C[C@@H]3O[C@H]1C[C@H](N)[C@H](O)[C@H](C)O1 [conjugate 1, Dau=Aoa-SKAAKN-OH] ({Daunorubicin(13-NOCH2CO)}-SKAAKN-OH)","Viability (%) at 10-5 M concentration, after 72 h incubation, Colo-205",Colo-205 cells; 1e-5 M,50.7 ± 1.6%
same,"Viability (%) at 10-5 M concentration, after 72 h incubation, A2058",A2058 cells; 1e-5 M,61.5 ± 2.7%
same,"Viability (%) at 10-5 M concentration, after 72 h incubation, EBC-1",EBC-1 cells; 1e-5 M,77.8 ± 1.0%
same,Viability after 24 h treatment at 10^−4 M (initial CI increase),"PANC-1 cells; 24 h, 1e-4 M",224.1 ± 18.73%
same,"Viability (%) at 10^−5 M Concentration, After 72 h Incubation",PANC-1 cells; 1e-5 M,112.5 ± 5.1%
"COc1cccc2c1C(=O)c1c(O)c3c(c(O)c1C2=O)C[C@@](O)(C(C)=NOCC(=O)N[C@@H](CCCCN)C(=O)N[C@@H](CO)C(=O)N[C@@H](CCCCN)C(=O)N[C@@H](C)C(=O)N[C@@H](C)C(=O)N[C@@H](CCCCN)C(=O)N[C@@H](CC(N)=O)C(=O)O)C[C@@H]3O[C@H]1C[C@H](N)[C@H](O)[C@H](C)O1 [conjugate 2, Dau=Aoa-KSKAAKN-OH] ({Daunorubicin(13-NOCH2CO)}-KSKAAKN-OH)",Speed of lysosomal degradation (in words),[1],very fast
"COc1cccc2c1C(=O)c1c(O)c3c(c(O)c1C2=O)C[C@@](O)(C(C)=NOCC(=O)NCC(=O)N[C@@H](Cc1ccccc1)C(=O)N[C@@H](CC(C)C)C(=O)NCC(=O)N[C@@H](CCCCN)C(=O)N[C@@H](CO)C(=O)N[C@@H](CCCCN)C(=O)N[C@@H](C)C(=O)N[C@@H](C)C(=O)N[C@@H](CCCCN)C(=O)N[C@@H](CC(N)=O)C(=O)O)C[C@@H]3O[C@H]1C[C@H](N)[C@H](O)[C@H](C)O1 [conjugate 3, Dau=Aoa-GFLG-KSKAAKN-OH] ({Daunorubicin(13-NOCH2CO)}-GFLGKSKAAKN-OH)",Time to complete lysosomal degradation,[1],≤ 1 h
same,"Viability (%) at 10-5 M concentration, after 72 h incubation, Colo-205",Colo-205 cells; [3],59.3 ± 3.6%
same,"Viability (%) at 10-5 M concentration, after 72 h incubation, A2058",A2058 cells; [3],79.4 ± 17.6%
same,"Viability (%) at 10-5 M concentration, after 72 h incubation, EBC-1",EBC-1 cells; [3],76.2 ± 13.7%
same,"Viability (%) at 10^−5 M Concentration, After 72 h Incubation",PANC-1 cells; [4],105.1 ± 1.9%
"COc1cccc2c1C(=O)c1c(O)c3c(c(O)c1C2=O)C[C@@](O)(C(C)=NOCC(=O)NCC(=O)N[C@@H](Cc1ccccc1)C(=O)N[C@@H](CC(C)C)C(=O)NCC(=O)NCCCC[C@H](NC(=O)CNC(=O)[C@H](CC(C)C)NC(=O)[C@H](Cc1ccccc1)NC(=O)CNC(=O)CON=C(C)[C@]1(O)Cc2c(O)c4c(c(O)c2[C@@H](O[C@H]2C[C@H](N)[C@H](O)[C@H](C)O2)C1)C(=O)c1c(OC)cccc1C4=O)C(=O)N[C@@H](CO)C(=O)N[C@@H](CCCCN)C(=O)N[C@@H](C)C(=O)N[C@@H](C)C(=O)N[C@@H](CCCCN)C(=O)N[C@@H](CC(N)=O)C(=O)O)C[C@@H]3O[C@H]1C[C@H](N)[C@H](O)[C@H](C)O1 [conjugate 5, Dau=Aoa-GFLG-K(Dau=Aoa-GFLG)SKAAKN-OH] ({Daunorubicin(13-NOCH2CO)}-GFLGK([Gly-Leu-Phe-Gly-Daunorubicin(13-NOCH2CO)])SKAAKN-OH)",Time to complete lysosomal degradation,[1],> 72 h
same,"Viability (%) at 10-5 M concentration, after 72 h incubation, Colo-205",Colo-205 cells; [3],45.8 ± 2.6%
same,"Viability (%) at 10-5 M concentration, after 72 h incubation, A2058",A2058 cells; [3],61.9 ± 11.6%
same,"Viability (%) at 10-5 M concentration, after 72 h incubation, EBC-1",EBC-1 cells; [3],57.6 ± 11.1%
same,"Viability (%) at 10^−5 M Concentration, After 72 h Incubation",PANC-1 cells; [4],31.3 ± 1.8%
same,Viability after 24 h,"PANC-1 cells; PANC-1, impedimetry, 10^−5 M, 24 h (Figure 1A)",34%
COc1cccc2c1C(=O)c1c(O)c3c(c(O)c1C2=O)C[C@@](O)(C(C)=NOCC(=O)N[C@@H](CO)C(=O)N[C@@H](CCCCN)C(=O)N[C@@H](C)C(=O)N[C@@H](C)C(=O)N[C@@H](CCCCN)C(=O)N[C@@H](CC(N)=O)C(=O)O)C[C@@H]3O[C@H]1C[C@H](N)[C@H](O)[C@H](C)O1 [conjugates 1] ({Daunorubicin(13-NOCH2CO)}-SKAAKN-OH),Speed of lysosomal degradation (in words),[1],very fast
Dau=Aoa-GFLG-K(Dau=Aoa-GFLG)SKAAKN-OH,fragment found,[2],"Dau=Aoa-G-OH, minor; also recorded: Dau=Aoa-GF-OH; also recorded: Dau=Aoa-GFL-OH; also recorded: H-K(Dau=Aoa-GFLG)SK-OH; also recorded: H-K(Dau=Aoa-GFLG)SKAA-OH; also recorded: H-K(Dau=Aoa-GFLG)SKAAKN-OH"
Dau=Aoa-GFLG-KSKAAKN-OH,fragment found,[2],"Dau=Aoa-GFL-OH; also recorded: Dau=Aoa-GFLGK-OH; also recorded: Dau=Aoa-GFLGKSK-OH, first_seen, 0 min; also recorded: Dau=Aoa-GFLGKSKAA-OH, first_seen, 0 min; also recorded: Dau=Aoa-G-OH, 30 min; also recorded: Dau=Aoa-GF-OH, major, 30 min"
Dau=Aoa-KSKAAKN-OH,fragment found,[2],"Dau=Aoa-K-OH, minor, 30 min; also recorded: Dau=Aoa-KS-OH, 15 min; also recorded: Dau=Aoa-KSK-OH"
Dau=Aoa-SKAAKN-OH,fragment found,[2],"Dau=Aoa-S-OH, 0 min; also recorded: Dau=Aoa-SK-OH, 0 min"
